Assay results as given in paper PMC9861858, “Stereoselective Synthesis and Antiproliferative Activities of Tetrafunctional Diterpene Steviol Derivatives” (International Journal of Molecular Sciences, 2023).
Converted amounts (≈) assume the structure as drawn. “Also recorded” adds a separate entry of the source.

What was measured:
[1] = test system: A2780 cells; assay: MTT antiproliferative assay, A2780; format: cell-based, human; conditions: for Antiproliferative effect on A2780, in words: 10 and 30 μM; for inhibition at 10 µM / inhibition at 30 µM: Homo sapiens, 72 h, values <20% considered negligible, read-out: Growth inhibition (%) ± SEM, A2780; for inhibition at 10 µM: A2780, 10 μM; for inhibition at 30 µM: A2780, 30 μM
Experimental: (§1) The in vitro antiproliferative activities of the synthesised aminotriols 5–18 against a panel of different human cancer cell lines of gynecological origin, including cervical (SiHA and HeLa), breast (MCF7 and MDA-MB-231), ovary (A2780) cancers and NIH/3T3 healthy fibroblasts, were assayed by the MTT method. Cisplatin, a clinically applied anticancer agent was used as a reference compound, and the results are summarised in Figure 3 and Table S1 in the Supplementary Materials.
(§2) The growth-inhibitory effects of the presented terpenes were determined by a standard MTT [3-(4,5-dimethylthiazol2-yl)-2,5-diphenyltetrazolium bromide] assay against […] human cancer cell lines (cervical cancer HeLa and SiHa cell lines, breast cancer MCF-7 and MDA-MB-231 and ovarian cancer A2780). Murine embryonal fibroblast cells (NIH/3T3) were used to determine selectivity. All cell lines were purchased from the European Collection of Cell Cultures (Salisbury, UK). The cells were cultivated in Eagle’s minimal essential medium supplemented with 10% fetal bovine serum, 1% non-essential amino acids, and 1% Antibiotic-Antimycotic complex (penicillin, streptomycin, amphotericin B) at 37 °C in a humidified atmosphere containing 5% CO2. All media and supplements were purchased from Lonza Group Ltd. (Basel, Switzerland). Cancer cells were seeded into 96-well plates (5000 cells/well) after an overnight incubation, and the test compounds were added at two different concentrations (10 μM and 30 μM) and incubated for another 72 h under cell-culturing conditions. Finally, 20 μL of a 5 mg/mL MTT solution was added to each well, and the contents were incubated for a further 4 h. The medium was removed, and the precipitated formazan crystals were dissolved in DMSO by shaking at 37 °C for 60 min. The absorbance was measured at 545 nm by using a microplate reader (SPECTROStar Nano, BMG Labtech, Offenburg, Germany). Clinically utilised anticancer agent cisplatin (Ebewe GmbH, Unterach, Austria) was included as a reference molecule. Calculations were performed using the GraphPad Prism 9 software (GraphPad Software Inc., San Diego, CA, USA).

[2] = Kinetic aqueous solubility; format: physicochemical; conditions: phosphate buffered saline with 5% DMSO, aqueous with cosolvent or surfactant or cyclodextrin, kinetic from dmso stock; after 2 h, at 37 °C in PBS, pH 7.4, 5% DMSO; target concentration 500 μM; mean ± S.E.M, n = 3
Experimental: (§3) Filtrates and calibration solutions (5–500 μ M) of the kinetic solubility study and starting donor and acceptor solutions of the PAMPA-GI study were investigated by HPLC-DAD-MS. LC-MS analysis was performed using a Waters 2795 HPLC with a Waters 2487 DAD detector coupled with a Micromass Quattro Ultima TMPt quadrupol mass spectrometer equipped with an ESI source. Measurements were performed on a Waters XSelect C18 (150 × 4.6 mm; 3.5 μm) column with a […] eluent flow rate and the temperature set at 40 °C. The composition of eluent A was MilliQ water with 0.1% formic acid, and that of eluent B was an acetonitrile and MilliQ water mixture (95:5, v/v), also with 0.1% formic acid. The following linear gradient program was used: 0–6 min, 10–100% B; this was held for 3 min, then from 9.01 min on, back to the starting composition of 10% B–90% A. The injection volume was 10 μL for each sample. Chromatographic profiles were registered at dual wavelength, 220 and 240 nm. The mass spectrometer was used in negative ion mode for samples 2, 3 and 4b, and in positive ion mode for other samples. The operating parameters of the MS were: Mass range of m/z 150–700. Nitrogen gas flow rate was 350 L/h, temperature of 350 °C and pressure of 6 bar. The quadrupol temperature was 120 °C, and the capillary voltage was 2.5 kV. Fragmentor’s voltage of 60 V.
(§4) Intestinal (GI) permeability was determined by using an intestinal-specific parallel artificial membrane permeability assay (PAMPA-GI [36]]). […] All solutions were filtered by MultiScreen HTS Vacuum Manifold (Merck Ltd., Budapest, Hungary) after the incubation period. The target concentration was 500 μM for every sample investigated. The intestinal-specific effective permeability of the samples was determined by PAMPA-GI. To prepare starting solutions for a 96-well donor plate, 15 μLs of the 10 mM DMSO stock solution of investigation compounds and 285 μL pH 6.5 phosphate buffer solution were mixed. These solutions were left in a shaking incubator (300 rpm) at 25 °C for 1 h. Meanwhile, a 96-well acceptor plate was filled with 300 μL of pH 7.4 PBS buffer solution containing 5% DMSO. The intestinal-specific artificial membrane was prepared the following way: the hydrophobic filter material of the donor plate was coated with a mixture of phosphatidylcholine/cholesterol = 2:1 (5 μL, 4 % (w/v) in dodecane). After that, all donor wells were filled with 150 μL of the starting donor solutions, and they were carefully placed on the acceptor plate and incubated at 37 °C for 4 h. After the end of the incubation period the donor and acceptor plates were separated carefully. A total of 150 μL of the donor, acceptor and the starting donor solutions were sampled and analysed with HPLC-DAD-MS. The effective permeability and membrane retention of drugs were calculated using the following equations: Pe=−2.303/A·(t−τss)·1/1+rv·lg[−rv+(1+rv/1−MR)·]CD(t)/CD(0) MR=1−CD(t)/CD(0)−VA·CA(t)/VD·CD(0) where Pe is the effective permeability coefficient (cm/s), A is the filter area (0.3 cm^2), VD and VA are the volumes in the donor (0.15 cm^3) and acceptor phase (0.3 cm^3), t is the incubation time (s), τSS is the time to reach steady-state (s), CD(t) is the concentration of the compound in the donor phase at time point t (mol/cm^3), CD(0) is the concentration of the compound in the donor phase at time point zero (mol/cm^3), rv is the aqueous compartment volume ratio (VD/VA), MR is the membrane retention factor.

[3] = test system: NIH/3T3 fibroblasts; assay: MTT assay on fibroblasts (selectivity); format: cell-based, murine; conditions: Mus musculus, 72 h, values <20% considered negligible, read-out: Growth inhibition (%) ± SEM, NIH/3T3; for inhibition at 10 µM: NIH3T3, 10 μM; for inhibition at 30 µM: NIH3T3, 30 μM
Experimental: as §1, §2

[4] = Intestinal-specific parallel artificial membrane permeability assay (PAMPA-GI); format: in vitro ADME; conditions: gradient pH system (pH donor 6.5 → pH acceptor 7.4) after 4 h, at 37 °C, mean ± S.E.M, n = 3
Experimental: as §3, §4

[5] = test system: MDA-MB-231 cells; assay: MTT antiproliferative assay, MDA-MB-231; format: cell-based, human; conditions: for Antiproliferative effect / selectivity on MDA-MB-231, in words: 10 and 30 μM; for inhibition at 10 µM / inhibition at 30 µM: Homo sapiens, 72 h, values <20% considered negligible, read-out: Growth inhibition (%) ± SEM, MDA-MB-231; for inhibition at 10 µM: MDA-MB-231, 10 μM; for inhibition at 30 µM: MDA-MB-231, 30 μM
Experimental: as §1, §2

[6] = test system: HeLa cells; assay: MTT antiproliferative assay, HeLa; format: cell-based, human; conditions: Homo sapiens, HeLa, 72 h, values <20% considered negligible, read-out: Growth inhibition (%) ± SEM, HeLa
Experimental: as §1, §2

[7] = test system: SiHa cells; assay: MTT antiproliferative assay, SiHa; format: cell-based, human; conditions: for inhibition at 10 µM / inhibition at 30 µM: Homo sapiens, SiHa, 72 h, values <20% considered negligible, read-out: Growth inhibition (%) ± SEM, SiHa
Experimental: as §1, §2

[8] = test system: MCF-7 cells; assay: MTT antiproliferative assay, MCF-7; format: cell-based, human; conditions: for Antiproliferative effect / selectivity on MCF-7, in words: 10 and 30 μM; for inhibition at 10 µM / inhibition at 30 µM: Homo sapiens, 72 h, values <20% considered negligible, read-out: Growth inhibition (%) ± SEM, MCF-7; for inhibition at 10 µM: MCF7, 10 μM; for inhibition at 30 µM: MCF7, 30 μM
Experimental: as §1, §2

Row | SMILES | Antiproliferative effect on A2780, in words [1] | inhibition at 10 µM [1] [%] | inhibition at 30 µM [1] [%] | solubility kinetic at 2 h [2] [µM] | inhibition at 10 µM [3] [%] | inhibition at 30 µM [3] [%] | Papp at 4 h, 500 µM ([4]; PAMPA, read-out: PAMPA-GI Pe) [×10⁻⁶ cm/s] | PAMPA-GI MR (membrane retention) [4] [%] | Antiproliferative effect / selectivity on MDA-MB-231, in words [5] | inhibition at 10 µM [5] [%] | inhibition at 30 µM [5] [%] | inhibition at 10 µM [6] [%] | inhibition at 30 µM [6] [%] | inhibition at 10 µM [7] [%] | inhibition at 30 µM [7] [%] | Antiproliferative effect / selectivity on MCF-7, in words [8] | inhibition at 10 µM [8] [%] | inhibition at 30 µM [8] [%] | melting point [°C] | Antiproliferative effect on SiHa, in words ([7]; 10 and 30 μM)
1 | COC(=O)[C@]1(C)CCC[C@@]2(C)C3CC[C@]4(O)C[C@@]3(CCC21)[C@@H](O)[C@]4(O)CN[C@H](C)c1ccccc1 (stereo partly drawn) [Compound 7, (4R,6aR,7R,8R,9S,11bS)-Methyl 7,8,9-Trihydroxy-4,11b-dimethyl-8-((((R)-1-phenylethyl)amino)methyl)tetradecahydro-6a,9-methanocyclohepta[a]naphthalene-4-carboxylate] | slightly weaker action | 52.9 ± 1.83 | 98.14 ± 0.36 | 182 ± 3.2 (≈ 88.2 µg/mL) | 35.8 ± 4.12 | 100.5 ± 0.37 | 0.64 ± 0.07 | 28.8 ± 5.8 | noteworthy selectivity | 88.05 ± 0.59 | 94.56 ± 0.63 | 33.7 ± 0.93 | 97.76 ± 0.25 | < 20 | 94.56 ± 0.54 | slightly weaker action | 62.8 ± 1.05 | 97.69 ± 0.38 | 84 to 87 | –
2 | COC(=O)[C@]1(C)CCC[C@@]2(C)C3CC[C@]4(O)C[C@@]3(CCC21)[C@@H](O)[C@]4(O)CN[C@@H](C)c1ccc2ccccc2c1 (stereo partly drawn) [Compound 13, (4R,6aR,7R,8R,9S,11bS)-Methyl 7,8,9-Trihydroxy-4,11b-dimethyl-8-((((S)-1-(naphthalen-2-yl)ethyl)amino)methyl)tetradecahydro-6a,9-methanocyclohepta[a]naphthalene-4-carboxylate] | – | 96.64 ± 0.35 | 96.79 ± 0.2 | 11.9 ± 1.8 (≈ 6.38 µg/mL) | 72 ± 1.81 | 90.5 ± 1.31 | – | 92.6 ± 1.1 | – | 93.33 ± 0.29 | 93.21 ± 0.46 | 94.5 ± 1.24 | 94.9 ± 1.29 | 93.8 ± 1.81 | 93.77 ± 0.41 | – | 95.74 ± 0.64 | 95.44 ± 0.85 | 81 to 83 | –
3 | COC(=O)[C@]1(C)CCC[C@@]2(C)C3CC[C@]4(O)C[C@@]3(CCC21)[C@@H](O)[C@]41CN(Cc2ccccc2)CO1 (stereo partly drawn) [Compound 18, (4R,5’R,6aR,7R,9S,11bS)-Methyl 3’-Benzyl-7,9-dihydroxy-4,11b-dimethyldodecahydro-1H-spiro [6a,9-methanocyclohepta[a]naphthalene-8,5’-oxazolidine]-4-carboxylate] | moderate activity | < 20 | 58.5 ± 3.18 | 321 ± 88.5 (≈ 155 µg/mL) | < 20 | < 20 | – | 2.7 ± 0.4 | moderate activity; also recorded: smaller but also selective antiproliferative effect | < 20 | 87.7 ± 0.91 | < 20 | 41.1 ± 1.95 | < 20 | 66.1 ± 2.45 | Selectivity for MCF-7 cells increased slightly | < 20 | 95.18 ± 0.35 | 123 to 125 | moderate activity
4 | COC(=O)[C@]1(C)CCC[C@@]2(C)C3CC[C@]4(O)C[C@@]3(CCC21)[C@@H](O)[C@]4(O)CNCc1cccc2ccccc12 (stereo partly drawn) [Compound 14, (4R,6aR,7R,8R,9S,11bS)-Methyl 7,8,9-Trihydroxy-4,11b-dimethyl-8-(((naphthalen-1-ylmethyl)amino)methyl)tetradecahydro-6a,9-methanocyclohepta[a]naphthalene-4-carboxylate] | – | 92.2 ± 3.33 | 96.81 ± 0.23 | 18.9 ± 2.4 (≈ 9.86 µg/mL) | 93.25 ± 0.51 | 97.34 ± 0.26 | – | 94.2 ± 2.0 | – | 97.41 ± 0.21 | 96.46 ± 0.34 | 97.2 ± 0.92 | 98.14 ± 0.36 | 97.24 ± 0.39 | 96.7 ± 0.65 | – | 97.57 ± 0.19 | 97.66 ± 0.28 | 138 to 140 | –
